According to BindingDB's records for doi:10.1021/jm00001a008 (R. W. Johnson Pharmaceutical Research Institute, 1995):
Counter-ions that a name gives are not always drawn.

How the values were obtained:
[1] = biological target: T1, Integrin alpha-IIb/beta-3 (Homo sapiens, UniProt P08514+P05106); test: Inhibition of collagen-induced platelet aggregation
[2] = biological target: T1, Integrin alpha-IIb/beta-3; test: Inhibition of arachidonic acid-induced platelet aggregation
[3] = biological target: T1, Integrin alpha-IIb/beta-3; test: Inhibition of thrombin-induced platelet aggregation at 50 uM

T1 sequence (P05106 27-788 limits assumed): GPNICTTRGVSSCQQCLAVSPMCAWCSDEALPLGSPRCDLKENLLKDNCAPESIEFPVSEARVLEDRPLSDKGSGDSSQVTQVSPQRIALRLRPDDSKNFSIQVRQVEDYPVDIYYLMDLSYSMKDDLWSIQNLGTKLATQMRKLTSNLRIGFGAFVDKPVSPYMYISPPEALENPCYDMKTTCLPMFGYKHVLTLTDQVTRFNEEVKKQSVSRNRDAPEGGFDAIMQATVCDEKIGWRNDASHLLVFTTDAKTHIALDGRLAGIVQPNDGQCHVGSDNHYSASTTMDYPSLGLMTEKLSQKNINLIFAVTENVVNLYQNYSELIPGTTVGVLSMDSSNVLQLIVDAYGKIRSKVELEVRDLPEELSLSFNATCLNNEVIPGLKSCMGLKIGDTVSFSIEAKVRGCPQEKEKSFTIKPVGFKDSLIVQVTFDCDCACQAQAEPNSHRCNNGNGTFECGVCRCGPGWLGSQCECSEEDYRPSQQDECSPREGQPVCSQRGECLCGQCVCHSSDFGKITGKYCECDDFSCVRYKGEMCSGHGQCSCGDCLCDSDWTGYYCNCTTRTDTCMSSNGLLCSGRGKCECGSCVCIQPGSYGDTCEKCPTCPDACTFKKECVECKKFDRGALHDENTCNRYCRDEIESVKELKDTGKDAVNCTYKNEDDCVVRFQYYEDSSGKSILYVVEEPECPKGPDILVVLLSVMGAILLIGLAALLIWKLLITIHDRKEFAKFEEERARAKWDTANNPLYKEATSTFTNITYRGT
T1 sequence (P08514 32-887 limits assumed): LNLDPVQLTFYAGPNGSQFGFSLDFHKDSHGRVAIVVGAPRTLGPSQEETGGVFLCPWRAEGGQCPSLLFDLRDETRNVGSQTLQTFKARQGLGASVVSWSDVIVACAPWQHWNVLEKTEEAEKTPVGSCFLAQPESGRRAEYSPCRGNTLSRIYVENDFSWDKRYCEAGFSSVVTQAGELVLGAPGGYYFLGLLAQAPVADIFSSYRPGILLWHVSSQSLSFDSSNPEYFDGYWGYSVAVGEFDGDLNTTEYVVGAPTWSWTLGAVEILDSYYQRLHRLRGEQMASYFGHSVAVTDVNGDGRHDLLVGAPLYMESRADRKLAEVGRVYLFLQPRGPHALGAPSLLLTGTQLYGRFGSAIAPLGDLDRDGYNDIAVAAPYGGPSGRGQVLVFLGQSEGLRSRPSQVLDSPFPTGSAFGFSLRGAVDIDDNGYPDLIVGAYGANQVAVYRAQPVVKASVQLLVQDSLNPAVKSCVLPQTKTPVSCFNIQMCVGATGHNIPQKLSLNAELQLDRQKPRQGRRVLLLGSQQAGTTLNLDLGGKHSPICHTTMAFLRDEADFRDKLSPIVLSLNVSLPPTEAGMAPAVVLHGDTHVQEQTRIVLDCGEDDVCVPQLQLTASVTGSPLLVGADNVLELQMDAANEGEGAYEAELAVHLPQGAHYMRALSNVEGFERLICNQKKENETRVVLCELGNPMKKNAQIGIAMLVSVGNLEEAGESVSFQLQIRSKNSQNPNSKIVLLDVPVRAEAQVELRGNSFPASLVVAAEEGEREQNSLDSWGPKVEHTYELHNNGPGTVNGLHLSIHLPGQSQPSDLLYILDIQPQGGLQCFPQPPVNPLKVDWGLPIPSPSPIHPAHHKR
T1 sequence (P08514 891-1039 limits assumed): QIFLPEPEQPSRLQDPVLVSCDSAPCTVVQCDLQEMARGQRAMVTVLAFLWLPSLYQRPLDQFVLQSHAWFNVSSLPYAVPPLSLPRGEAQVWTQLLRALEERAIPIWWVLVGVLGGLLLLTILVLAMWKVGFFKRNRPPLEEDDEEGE

Row | SMILES | IC50 [1] [µM] | IC50 [2] [µM] | IC50 [3] [µM]
1 | CCN(CC)CCCNC(=O)c1cnn(-c2nc(-c3cccc(C(F)(F)F)c3)c(Br)s2)c1C(F)(F)F [1-[5-Bromo-4-(3-trifluoromethyl-phenyl)-thiazol-2-yl]-5-trifluoromethyl-1H-pyrazole-4-carboxylic acid (3-diethylamino-propyl)-amide] | 3.5 | 2.1 | –
2 | CC(=O)Oc1ccccc1C(=O)O [2-(acetyloxy)benzoic acid] | > 100 | 5 | –
3 | NCCNC(=O)c1cnn(-c2nc(-c3cccc(C(F)(F)F)c3)cs2)c1C(F)(F)F [5-Trifluoromethyl-1-[4-(3-trifluoromethyl-phenyl)-thiazol-2-yl]-1H-pyrazole-4-carboxylic acid (2-amino-ethyl)-amide; hydrochloride] | – | – | 11.2
4 | NCCCNC(=O)c1cnn(-c2nc(-c3cccc(C(F)(F)F)c3)cs2)c1C(F)(F)F [5-Trifluoromethyl-1-[4-(3-trifluoromethyl-phenyl)-thiazol-2-yl]-1H-pyrazole-4-carboxylic acid (3-amino-propyl)-amide; hydrochloride] | 3 | 3.7 | –
5 | CCN(CC)CCCNC(=O)c1cnn(-c2nc(-c3cccc(C(F)(F)F)c3)cs2)c1C(F)(F)F [5-Trifluoromethyl-1-[4-(3-trifluoromethyl-phenyl)-thiazol-2-yl]-1H-pyrazole-4-carboxylic acid (3-diethylamino-propyl)-amide] | 2.5 | 0.4 | –
6 | O=C(NCCCN1CCCCC1)c1cnn(-c2nc(-c3cccc(C(F)(F)F)c3)cs2)c1C(F)(F)F [5-Trifluoromethyl-1-[4-(3-trifluoromethyl-phenyl)-thiazol-2-yl]-1H-pyrazole-4-carboxylic acid (3-piperidin-1-yl-propyl)-amide] | 3 | 12 | –
7 | CCCNCCCNC(=O)c1cnn(-c2nc(-c3cccc(C(F)(F)F)c3)cs2)c1C(F)(F)F [5-Trifluoromethyl-1-[4-(3-trifluoromethyl-phenyl)-thiazol-2-yl]-1H-pyrazole-4-carboxylic acid (3-propylamino-propyl)-amide] | 3.5 | 4.1 | –
8 | NCCCCNC(=O)c1cnn(-c2nc(-c3cccc(C(F)(F)F)c3)cs2)c1C(F)(F)F [5-Trifluoromethyl-1-[4-(3-trifluoromethyl-phenyl)-thiazol-2-yl]-1H-pyrazole-4-carboxylic acid (4-amino-butyl)-amide; hydrochloride] | 0.1 | 4.5 | –
9 | COc1ccc(CCNC(=O)C(CC(=O)O)NC(=O)CCCCCCCNC(=N)N)cc1 (stereo unspecified) [SC-47643] | – | 2.4 | –
